The text below walks through data of publication PMC5976192, “Design of a glutamine substrate tag enabling protein labelling mediated by Bacillus subtilis transglutaminase” (PLoS ONE, 2018).

The target of this experiment is T1, bTG (Bacillus subtilis transglutaminase) (Bacillus subtilis, UniProt P40746).
T1 construct: gene tgl; recombinant, expressed in E. coli in active form and purified; about 28 kDa; construct details only in S1 File
T1 sequence (P40746 1-245): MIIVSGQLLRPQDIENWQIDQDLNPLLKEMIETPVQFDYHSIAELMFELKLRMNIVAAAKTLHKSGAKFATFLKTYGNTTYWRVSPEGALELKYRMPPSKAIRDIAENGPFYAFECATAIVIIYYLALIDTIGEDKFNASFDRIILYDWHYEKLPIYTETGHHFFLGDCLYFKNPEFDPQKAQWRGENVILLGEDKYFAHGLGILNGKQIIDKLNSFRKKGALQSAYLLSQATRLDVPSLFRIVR
Nature of the experiment: GDH-coupled assay; fluorescent labelling on SDS-PAGE. The class given is biochemical. To be noted: acyl acceptor at 5 mM; 0.8 μM Q-tagged mRuby2 as acyl donor; 0.1 U bTG; 20 min; gel labelling 3 h at 37 °C; initial rates only.

On to `CN(C)c1cccc2c(S(=O)(=O)NCCCCCN)cccc12` [dansyl-cadaverine], for which the “GDH-coupled assay; fluorescent labelling on SDS-PAGE” value was “initial rates of transamidation between Q-tagged mRuby2 and dansyl-cadaverine were measured using the GDH-coupled assay”.
